Results taken from publication PMC3832641, “Inhibition of Leishmania (Leishmania) amazonensis and Rat Arginases by Green Tea EGCG, (+)-Catechin and (−)-Epicatechin: A Comparative Structural Analysis of Enzyme-Inhibitor Interactions” (PLoS ONE, 2013).

What was measured:
[1] = test system: L. (L.) donovani amastigotes; parameters: method as in PMID 16569852; details: cited from earlier work
[2] = biological target: T1, rat liver arginase (ARG-1) (Rattus norvegicus, UniProt P07824); assay: Inhibition of rat liver arginase (ARG-1); format: biochemical; details: for Inhibition of ARG-1: inhibitors at 10 µM or 100 µM; for inhibition at 1000 µM: inhibitors at 1000 µM
T1 construct: Rat liver arginase (ARG-1) was prepared by lysing 5 g of liver cells; from tissue; host or cells: rat liver
T1 sequence (P07824 1-323): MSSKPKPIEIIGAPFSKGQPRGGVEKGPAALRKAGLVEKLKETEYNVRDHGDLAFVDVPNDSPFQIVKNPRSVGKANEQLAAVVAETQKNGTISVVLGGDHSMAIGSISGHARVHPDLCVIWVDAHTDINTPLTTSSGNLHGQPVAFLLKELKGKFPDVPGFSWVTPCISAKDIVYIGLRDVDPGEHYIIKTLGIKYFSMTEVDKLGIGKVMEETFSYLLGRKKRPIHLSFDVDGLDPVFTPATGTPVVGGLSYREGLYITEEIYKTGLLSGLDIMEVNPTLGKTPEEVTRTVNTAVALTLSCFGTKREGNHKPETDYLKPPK

[3] = biological target: T2, recombinant arginase from Leishmania amazonensis (ARG-L) (Leishmania amazonensis, UniProt O96394); assay: biochemical
[4] = biological target: T2, recombinant arginase from Leishmania amazonensis (ARG-L); assay: ARG-L enzyme kinetics: Ki, Ki' and mechanism of inhibition (Dixon and Cornish-Bowden plots); format: biochemical; details: for Ki': Cornish-Bowden plot, dissociation constant of enzyme-inhibitor-substrate complex; for Ki' / Ki: mean ± SEM; for Mode of inhibition: Dixon and Cornish-Bowden plots; for Ki: Dixon plot, dissociation constant of enzyme-inhibitor complex
Protocol: All reactions were performed in CHES buffer, 50 mM, pH 9.5, containing various concentrations of the substrate L-[…].5, 25, 50 and 100 mM) at pH 9.5. Inhibitors were used at three different concentrations similar to the IC50. The different substrate and inhibitor concentrations were obtained by serial dilution. A mixture, M1, containing L-arginine (pH 9.5) at double the desired concentration and a second mixture, M2, containing the enzyme (2000 units) diluted in 125 mM CHES buffer (pH 9.5) were prepared. The reaction mixture was obtained by homogenizing 50 μL of M1, 10 μL of inhibitor and adding 40 μL of M2. The addition of M2 was synchronized every 15 seconds, followed by immediate incubation in a water bath for 15 minutes at 37°C. The urea produced was analyzed as described above. […] Each constant was determined by calculating X values at the intersection points between two lines obtained by linear regression. […] Ki and Ki' is a positive value of the calculated X (Ki = -X). For three different values of S, three lines were drawn for 1/v against i (Dixon plot) and three lines for S/v against i (Cornish-Bowden plot). In the Dixon plot, the lines intersect at a point where i = -Ki and 1/v = [1- (Ki/Ki')]/Vmax; in the Cornish-Bowden plot, they intersect at a point where i = -Ki' and S/v = KM[1- (Ki'/Ki)]/Vmax. To make wizard Ki and Ki' calculations, linear data fitting was performed using Microsoft Office Excel v.2013. The linear equations were obtained by linear regression R^2>0.85. Linear regression retrieved the linear equation y(n) = […]), which calculates the reciprocal of the ratio of reaction 1/v (y(n)) as a function of variable inhibitor concentration (x(n)). The term b(n) is the reciprocal of the maximum ratio of reaction (1/Vmax) obtained at a fixed S concentration and variable i concentration. The Dixon and Cornish-Bowden plots were constructed using a mean of each point obtained from three independent experiments performed in duplicate. Three interception points were obtained by the combination of two linear equations for each time point. Then, Ki and Ki' were calculated using equation (7) and were expressed as mean values ± SEM (standard error of the mean).

L. (L.) amazonensis = test system: L. (L.) amazonensis; parameters: method as in PMID 22735546; details: cited from earlier work

Which results are given for `Oc1cc(O)c2c(c1)O[C@H](c1ccc(O)c(O)c1)[C@H](O)C2` [(−)-epicatechin]?
Leishmanicidal activity / effect on growth of the parasite [1]: little effect on the growth of the parasite; Inhibition of ARG-1 [2]: did not significantly inhibit; inhibition at 1000 µM [2]: 22%

What does the source list for `O=C(O)c1cc(O)c(O)c(O)c1` [Gallic acid]?
Inhibition of ARG-1 [2]: did not significantly inhibit; inhibition at 1000 µM [2]: 20%; IC50 [3]: 2.2 ± 0.2 µM; Ki' [4]: 7.2 ± 1.4 µM; Mode of inhibition [4]: Noncompetitive; Mode of inhibition ([4]; listed as gallic acid): noncompetitive inhibitor; Ki [4]: 7.2 ± 1.4 µM

Which “Leishmanicidal activity / effect on growth of the parasite” value [1] does the source give for `Oc1cc(O)c2c(c1)O[C@H](c1ccc(O)c(O)c1)[C@@H](O)C2` [(+)-catechin] here?
Its value is “little effect on the growth of the parasite”.

And the “Inhibition of ARG-1” value [2]?
The value was “did not significantly inhibit”.

And the inhibition at 1000 µM [2]?
The inhibition at 1000 µM was 26%.

What does the source list for `O=C(OC1Cc2c(O)cc(O)cc2OC1c1cc(O)c(O)c(O)c1)c1cc(O)c(O)c(O)c1` (single isomer, unassigned; (-)) [EGCG, (−)-Epigallocatechin-3-gallate]?
Leishmanicidal activity / effect on growth of the parasite [1]: shows leishmanicidal activity; Inhibition of ARG-1 [2]: did not significantly inhibit; inhibition at 1000 µM [2]: 29%; Effect on parasite mitochondria (L. (L.) amazonensis): damages mitochondria, contributing to the death of the parasite; IC50 [3]: 3.8 ± 0.1 µM; Ki' [4]: 12.5 ± 0.4 µM; Mode of inhibition [4]: mixed inhibitor; Ki [4]: 4 ± 0.5 µM
